Literature values, collected in US6806373B2, “Process for preparing leflunomide form I” (Teva Pharmaceutical Industries Ltd., priority 1999, dated 2004).

Experiments:
[1] = according to AU-A-78870/98
[2] = solid form, according to AU-A-78870/98
[3] = water or mixtures of water and C1-C4 alcohols, acetone or methyl ethyl ketone, even with heating (<40° C.)

kinetically stable up to (temperature) [2] | solubility in suspension solvents [3] | SMILES | dissolution in water compared with Form I [1]
up to 40 °C | – | Cc1oncc1C(=O)Nc1ccc(C(F)(F)F)cc1 [Form II] | more readily dissolves in water than does Form I
– | poorly soluble | Cc1oncc1C(=O)Nc1ccc(C(F)(F)F)cc1 [leflunomide] | –
